The values below come from US10086010B2 (STC.UNM, priority 2014, dated 2018).

Where two headings read alike, the source gives them in different places.

Series [1] relates to HT-29 cells. As to the kind of experiment: CyQUANT cell proliferation assay. The class given is cell-based, human. Conditions: 3AB present with 5-FU and hmUdR for 72 h. As for the experimental part:
Cell proliferation assays measuring genomic DNA were carried out using the CyQUANT kit (Invitrogen). In these experiments, the cells after drug treatments were replated to grow in the absence of the drugs for six days, and their nucleic acids was quantitated by CyQUANT assay. These assays were also conducted in triplicate.

Series [2] concerns HT-29 cells. As to the kind of experiment: WST-1 cell growth/viability assay, HT-29. It is filed as cell-based, human. Particulars: for effect of PARP inhibitor on the reduction in succinate-tetrazolium reductase activity by 5-FU and hmUdR: inhibitor added simultaneously with 5-FU and hmUdR; for GI50: Homo sapiens, HT-29, 72 h, 72 hours. As for the experimental part:
Indicated concentrations of drugs were added to wells one day after seeding. […] Cell proliferation was quantitated by measuring 450 nm absorbance and 600 nm as a background. All assays were performed in triplicate. […] The minimal combination index […] for each cell line was obtained from the isobologram parameters.
A general note: Formazan colour is commonly taken as a measure of viable cells.

Series [3] relates to HT-29 cells. As to the kind of experiment: Cell cycle analysis by flow cytometry. It is filed as cell-based, human. The method, then: HT-29 cells that were seeded at 2×10^6 cells/plate in 10 cm dishes and incubated with 20 ng/ml nocodazole for 18 h. […] The synchronized cells were washed with PBS prior to the addition of fresh medium containing the indicated nucleosides and/or bases.
Cells grown in 10 cm dishes were trypsinized, spun down and suspended in 10 ml PBS containing 0.5% FBS. […], the cells were resuspended in 0.5 ml PBS/0.5% FBS, and fixed in 5 ml 70% ethanol at −20° C. […] and washing with 10 ml PBS/0.5% FBS, the cells were suspended in 1.5 ml PBS/0.5% FBS containing 10 μg/ml propidium iodide and 50 μg/ml RNase A, and incubated at 37° C. for 30 min. Cell cycle distribution was analyzed with a FACScan flow analyzer (Becton Dickinson).
Background: In flow cytometry, cells or beads pass a laser one at a time.

For series [4], the system named is HT-29 cells. Nature of the series: Alkaline comet assay (single-strand breaks). The class given is cell-based, human. Particulars: 48 h; for number of DNA single-strand breaks: 0.5 μM 5-FU and/or 5 μM hmUdR. As for the experimental part:
(§1) After incubation for indicated time periods (12-48 h), the cells were trypsinized and washed in PBS. For time course experiments, cells harvested at each time point were stored in 10% DMSO/40% DMEM/50% FBS at −80° C. until slide processing. Approximately 5,000 cells were spread in 0.9% low-melting point agarose/PBS on CometSlide (Trevigen), and chilled at 4° C. in the dark for 20 min.
For alkaline comet assay, slides were soaked in precooled lysis buffer containing 2.5 M NaCl/100 mM EDTA/10 mM Tris/1% sarkosyl/1% Triton X-100 at 4° C. for 45 min, followed by soaking in precooled 300 mM NaOH/1 mM EDTA at 4° C. for 45 min. Subsequently, slides were electrophoresed in 300 mM NaOH/1 mM EDTA at 1.4 V/cm for 20 min at 4° C., washed in 70% ethanol for 5 min, and allowed to dry in the dark. Cellular DNA was stained with 1×SYBR Green I (Molecular Probes) 30 min before analysis with a fluorescence microscope. Alkaline comet assays were performed in triplicate and more than 30 comets for each condition were photographed at the Light Microscope Facility at Fox Chase Cancer Center, and analyzed by CometScore software (TriTek).

For another series, the system named is HT-29 cellular DNA. Nature of the series: Quantitation of 5-FU and hmUdR incorporated into cellular DNA. It is filed as cell-based, human. Conditions: at 48 h. As for the experimental part:
[6-^3H]-5-FU (18 Ci/mmol) and of [^3H]-hmUdR (10 Ci/mmole) were purchased from Moravek Biochemicals. […] At 24 or 48 h after drug addition, cells were washed with PBS and their DNA was recovered with Trizol (Invitrogen) according to the manufacturer's instruction. Subsequently the recovered DNA was quantitated by 260 nm absorbance, and its radioactivity was measured by liquid scintillation counting.

The next series has as its system human CRC HT-29 cells. As to the kind of experiment: Cell growth assay, Example 2. It is filed as cell-based.
Series [5] deals with HT-29 cells. Nature of the series: Neutral comet assay (double-strand breaks). The class given is cell-based, human. Particulars: 0.5 μM FU and/or 5 μM hmUdR, 48 h. The method, then:
as §1
For neutral comet assay, slides were soaked in precooled lysis buffer at 4° C. for 30 min, followed by washing in precooled 1×TBE buffer (90 mM Tris-borate, pH8.3, 2 mM EDTA). Slides were electrophoresed in 1×TBE buffer at 2 V/cm for 20 min at 4° C., rinsed in deionized water, washed in 70% ethanol for 5 min, and allowed to dry in the dark. Subsequently, slides were processed as above for DNA staining and comet analyses. Neutral comet assays were conducted in duplicate, in each of which more than 60 comets for each condition were analyzed.

The test system of series [6] is HT-29 cells expressing GFP-H2B. Nature of the series: Time-lapse microscopy of cell divisions. The class given is cell-based, human. Particulars: 0.5 μM 5-FU and/or 5 μM hmUdR. The method, then:
HT-29 cells were infected with a retroviral vector for expression of […] histone H2B. HT-29 cells expressing GFP-H2B were seeded at 2×10^5 cells/well in 6-well plates. On the following day, drug treatments were initiated and cell proliferation was monitored by time-lapse microscopy. Image acquisition was done at the Light Microscope Facility at Fox Chase Cancer Center using phase-contrast and GFP-specific fluorescence microscopy (Nikon TE2000S) controlled by Metamorph (Molecular Devices). Images were captured at a rate of one frame per 15 minutes for 60 hours, in which cells were kept at 37° C. Images were captured from 10 areas per well. The number of cell divisions that occurred in each area was counted for the first 24 h and the second 24 h periods.

The subject of another series is PARP1. Nature of the series: Immunoblot detection of PARP1 cleavage. The class given is cell-based, human. Conditions: 5-FU and hmUdR 72 h; control 50 μM LY294002 1 h followed by 4 h 100 μg/ml TRAIL. The method, then:
After […] on ice, cells were scraped and […] for 10 min at 4° C. The supernatant was recovered. This whole cell extract (50 μg protein) was subjected to SDS-containing polyacrylamide gel electrophoresis, and transferred to Immobilon-P membrane (Millipore). For detection of poly(ADP-ribose), the nuclear pellet was recovered after removing the whole cell extract as prepared above except that the lysis buffer was supplemented with 50 μM ethacridine, an inhibitor of poly(ADP-ribose) glycohydrolase. 10 μg protein of the nuclear pellet was subjected to gel electrophoresis and transfer to membrane as described above. Primary antibodies used in this study were anti-PARP1 monoclonal mouse antibody (Trevigen), anti-p62 polyclonal rabbit antibody (Santa Cruz Biotechnology), anti-LC3 polyclonal rabbit antibody (Novus Biologicals), anti-β-actin monoclonal mouse antibody (Sigma), and anti-PCNA monoclonal antibody (PC10; Santa Cruz Biotechnology), anti-poly(ADP-ribose) mouse monoclonal antibody (Tulip Biolabs). […] Immunoblot signals were detected either by Odyssey Imaging System (LI-COR Biotechnology) or by exposure of X-ray films to the membrane soaked in ECL reagent (GE Healthcare).
(A western blot detects proteins with antibodies after separation by electrophoresis.)

Setting [7] is: 0.5 μM 5-FU + 5 μM hmUdR, WST-1.
Where [8] appears, read: 5 mM caffeine for the last 24 h.

Usually GI50 stands for the concentration that inhibits growth by half.

As to `NC(=O)c1cccc(N)c1` [3AB, 3-aminobenzamide], the “rescue of the effect of 5-FU and hmUdR on cell proliferation (CyQUANT)” value with HT-29 cells [1] was “did not rescue”. The “effect of PARP inhibitor on the reduction in succinate-tetrazolium reductase activity by 5-FU and hmUdR” value in the series on HT-29 cells [2] was “partially corrected”. Moreover, in the series with HT-29 cells [3] (3 mM 3AB added simultaneously with 0.5 μM 5-FU and 5 μM hmUdR), the “effect of 3AB on the S phase arrest induced by 5-FU and hmUdR” value is “enabled most cells to progress through S phase to G2/M”. Besides, the “effect of 3AB on the number of strand breaks caused by 5-FU and hmUdR” value in the series on HT-29 cells [4] (3 mM 3AB, 0.5 μM 5-FU, 5 μM hmUdR) is “significantly decreased”.
On to `O=c1[nH]cc(F)c(=O)[nH]1` [5-FU, 5-fluorouracil], for which the “incorporation of 5-FU into cellular DNA in the presence of hmUdR” value with HT-29 cellular DNA is reported as “decreased”. The GI50 in the series with HT-29 cells [2] (read-out: GI50 of HT-29 cells for 5-FU, 5-FU alone) was 19 µM; in the series with HT-29 cells [2] (read-out: GI50 of HT-29 cells for 5-FU, combined with hmUdR), under 0.1 µM. Further, the “effect on HT-29 cell growth of increasing concentration in the absence of fdU” value with human CRC HT-29 cells is “minimal effect”. In addition, in the series with HT-29 cells [3] (unsynchronized HT-29 cells, 0.5 μM 5-FU and/or 5 μM hmUdR, 48 h), the “cells accumulated in S phase” value turned out to be 52%. Also, in the series on HT-29 cells [5], the “number of double strand breaks” value is reported as “no significant effect”. Moreover, the “number of DNA single-strand breaks” value in the series with HT-29 cells [4] is “did not significantly increase”.
Take `O=c1[nH]cc(CO)c(=O)[nH]1` [5-hydroxymethyluracil]: the “enhancement of 5-FU activity / synergy with 5-FU” value with HT-29 cells [2] (HT-29, 72 hours) was “did not significantly enhance”.
Turning to `C[C@]1(c2nc3c(C(N)=O)cccc3[nH]2)CCCN1` [ABT-888], the “effect of PARP inhibitor on the reduction in succinate-tetrazolium reductase activity by 5-FU and hmUdR” value in the series on HT-29 cells [2] was “partially corrected”.
Consider `CN1C(=O)C(Cc2c[nH]c3ccccc23)NC1=S` (stereo not shown) [Nec-1], for which, in the series with HT-29 cells [2] (setting [7]), the “effect of necroptosis inhibitor on the growth inhibition effect of 5-FU and hmUdR” value is reported as “did not reduce”.
Consider `COC(=O)CC(NC(=O)C(NC(=O)c1ccc2ccccc2n1)C(C)C)C(=O)COc1c(F)cccc1F` (stereo not shown) [QVD, Quinolyl-valyl-O-methylaspartyl-[-2,6-difluorophenoxy]-methyl ketone], for which the “effect of caspase inhibitor on the growth inhibition effect of 5-FU and hmUdR” value in the series on HT-29 cells [2] (setting [7]) was “did not diminish”.
For `O=c1ccn([C@H]2C[C@H](O)[C@@H](CO)O2)c(=O)[nH]1` [UdR, 2′-deoxyuridine], the “enhancement of 5-FU activity / synergy with 5-FU” value in the series on HT-29 cells [2] (HT-29, 72 hours) was “neither UdR nor heUdR significantly enhanced”.
In the case of `Cn1c(=O)c2c(ncn2C)n(C)c1=O` [caffeine], in the series on HT-29 cells [3] (setting [8]), the “effect of caffeine on the S phase arrest induced by 5-FU alone” value is given as “abolished”; the “effect of caffeine on the S phase arrest induced by the combination of 5-FU and hmUdR” value is given as “resistant”. Also, the “effect of caffeine on the G2/M arrest of cells incubated with 3AB, 5-FU and hmUdR” value in the series with HT-29 cells [3] (unsynchronized HT-29 cells) is reported as “partially released the G2/M arrest”.
Regarding `O=Cc1cn([C@H]2C[C@H](O)[C@@H](CO)O2)c(=O)[nH]c1=O` [foUdR, 5-formyl-2′-deoxyuridine], in the series with HT-29 cells [2] (HT-29, 72 hours), the “activity with 5-FU relative to hmUdR” value is given as “comparable” and the “enhancement of 5-FU activity / synergy with 5-FU” value was “acted synergistically”.
Take `O=c1[nH]c(=O)n([C@H]2C[C@H](O)[C@@H](CO)O2)cc1O` [hUdR, 5-hydroxy-2′-deoxyuridine]: the “enhancement of 5-FU activity / synergy with 5-FU” value in the series with HT-29 cells [2] (HT-29, 72 hours) is on record as “to a lesser extent, hUdR (FIG. 5E) acted synergistically”.
On the same count and under the same terms, the entry for `O=c1[nH]c(=O)n([C@H]2C[C@H](O)[C@@H](CO)O2)cc1CCO` [heUdR, 5-hydroxyethyl-2′-deoxyuridine] is “neither UdR nor heUdR significantly enhanced”.
`O=c1[nH]c(=O)n([C@H]2C[C@H](O)[C@@H](CO)O2)cc1CO` [hmUdR, 5-Hydroxymethyl-2′-deoxyuridine]: in series [6], the “number of cell divisions per view field, second 24 h period relative to first 24 h period” value came out at 1.4±0.2 times. Also, the cell cycle distribution entry in the series on HT-29 cells [3] (unsynchronized HT-29 cells, 5 μM hmUdR alone, 48 h) was “did not change the cell cycle distribution”. The “number of double strand breaks” value in the series with HT-29 cells [5] was “increased”. For the same molecule, in the series with HT-29 cells [4], the “number of DNA single-strand breaks” value was “did not significantly increase”.

B1: TRAIL: used with LY294002 as positive control for PARP1 cleavage; known to cause apoptosis (protein, UniProt P50591 1-281, looked up)
Tumor necrosis factor ligand …: MAMMEVQGGPSLGQTCVLIVIFTVLLQSLCVAVTYVYFTNELKQMQDKYSKSGIACFLKEDDSYWDPNDEESMNSPCWQVKWQLRQLVRKMILRTSEETISTVQEKQQNISPLVRERGPQRVAAHITGTRGRSNTLSSPNSKNEKALGRKINSWESSRSGHSFLSNLHLRNGELVIHEKGFYYIYSQTYFRFQEEIKENTKNDKQMVQYIYKYTSYPDPILLMKSARNSCWSKDAEYGLYSIYQGGIFELKENDRIFVSVTNEHLIDMDHEASFFGAFLVG
As for B1, the “PARP1 cleavage (characteristic of apoptosis)” value with PARP1 was “induced”.
